Test results as given in patent US20070253961A1, “Pharmaceutical Composition Comprising the Anti-4-1Bb Antibody for Treating or Preventing Rheumatoid Arthritis” (ULSAN INDUSTRIAL EDUCATION FOUNDATION, priority 2003, published 2007).

Test system: CIA
Experiment: 1-MT (IDO inhibition) reversal of 4-1BB-mediated suppression of CIA
Assay type: in vivo, mice
Experimental: Each mouse was injected with 200[…] of purified anti-4-1BB (3H3, rat IgG1), anti-4-1BBL (TKS-1, rat IgG1), or control rat IgG i.p. on PI days 0, 2, 4, 6, and 8. We tested the dose response of the antibodies in vivo by measuring serum IFN-γ levels for anti-4-1BB and suppression of the recall response for anti-4-1BBL. […] To treat established CIA, the mice were injected on PI days 28, 30, 32, 34, and 36. To block IFN-γ mice were injected i.p. every 4 days with 500[…] of purified R4-6A2 on PI days 0, 4, 8, and 12. Rat IgG again served as a control.
To inhibit IDO activity, slow-release polymer pellets impregnated with 1-MT (10 mg/day release rate) or placebo pellets (Innovative Research of America, Sarasota, Fla.) were implanted under the dorsal skin 1 day before the immunization. […] Because of the large size of these pellets relative to the small size of the mice, additional experiments were conducted with the implantation of two smaller pellets (10 mg/day release rate) per mouse, each containing 120 mg 1-MT, for a dose of 20 mg/day for 12 days. On day 13, two more pellets were implanted, for a total dosage period of 24 days.

## Cn1cc(CC(N)C(=O)O)c2ccccc21 (racemic) [1-MT, 1-methyl D,L-tryptophan]
5 mg/day 1-MT, with anti-4-1BB
  reversal of suppressive effect of anti-4-1BB on CIA: incomplete
20 mg/day dose of 1-MT, slow-release pellets, with anti-4-1BB
  suppressive effect of anti-4-1BB on CIA: completely reversed
1-MT with anti-4-1BB, 'in these experiments'
  time of appearance of CIA after 1-MT reversal: at the same time as in the control mice
1-MT-treated mice with 3H3, control mice first showed signs on PI day 30
  day disease became evident: 48 PI day
